According to patent US20130096103A1, “IMIDAZOQUINOLINE COMPOUNDS” (NOVARTIS VACCINES & DIAGNOSTICS, INC., priority 2004, published 2013):

Experiments:
[1] = test system: BALB/c mice; assay: In vivo adjuvant study: Env-specific cytokine-producing splenic CD4 and CD8 T cells; details: spleens 6-7 d after 2nd vaccination
Source text: (§1) In phosphate-buffered saline (PBS), 25 micrograms gp120dV2EnvSF162 antigen (recombinant gp120 protein derived from sequence of HIV-1 strain SF162—the V2 domain was deleted; Pharm Res. 2004 Dec. 21(12):2148-52) as mixed with 50 microliters of MF59 adjuvant, followed the by the addition of 0, 1, 5, or 25 micrograms of a small molecule immune potentiator (SMIP) and adjusted to 100 microliters with PBS. 50 microliters of the solution was subsequently injected into both the left and right tibialis anterior muscles of female BALB/c mice (Day 0), for a total volume of 100 microliters per mouse. Four weeks later (Day 28), 50 microliters of the solution was again injected into both the left and right tibialis anterior muscles of the mouse. Seven days after the second vaccination ([…]), serum samples were collected, and a day later (day 35) spleens were removed. Serum samples were assayed by Env-specific serum IgG2a ELISA and Env-specific serum IgG1 ELISA. Spleen samples were assayed by Env-specific, cytokine-producing splenic CD4 and CD8 T cells.
(§2) BALB/c mise were immunized 2× with HIV gp120 formulated in MF59 +/− the indicated SMIPs (25 μg/ml). CpG 1826 (25 μg/ml) was used as a positive control. […] post-second serum was collected from the immunized mice and the anti-gp120-specific serum IgG2a (FIG. 4A) and IgG1 (FIG. 4B) geometric mean titers (GMT) were determined. In addition, spleens were also harvested from the immunized mice and ex vivo anti-gp120-specific T cell responses (FIG. 4C) were determined by intracellular cytokine staining for IL-2 and IFN-g. Results are percentage of antigen-specific T cells expressing the indicated cytokine.

[2] = test system: BALB/c mice; assay: In vivo adjuvant study: Env-specific serum IgG2a ELISA; details: vaccinated day 0 and 28, sera 6-7 d after 2nd vaccination
Source text: as §1, §2

[3] = test system: BALB/c mice; assay: In vivo adjuvant study: Env-specific serum IgG1 ELISA; details: vaccinated day 0 and 28, sera 6-7 d after 2nd vaccination
Source text: as §1, §2

[4] = Pope et al. Cellular Immunology 162: 333-339 (1995); cited from earlier work
[5] = 1 μg added to gp120dV2/MF59 base vaccine
[6] = 5 μg added to gp120dV2/MF59 base vaccine
[7] = 25 μg added to gp120dV2/MF59 base vaccine

| Compound | Env-spec CD4 (%) IFN-γ+ [1, 5] [%] | Env-spec CD4 (%) IL-2+ [1, 5] [%] | Env-spec CD8 (%) IFN-γ+ [1, 5] [%] | Env-spec CD8 (%) IL2+ [1, 5] [%] | Env-spec CD4 (%) IFN-γ+ [1, 6] [%] | Env-spec CD4 (%) IL-2+ [1, 6] [%] | Env-spec CD8 (%) IFN-γ+ [1, 6] [%] | Env-spec CD8 (%) IL2+ [1, 6] [%] | Env-spec CD4 (%) IFN-γ+ [1, 7] [%] | Env-spec CD4 (%) IL-2+ [1, 7] [%] | Env-spec CD8 (%) IFN-γ+ [1, 7] [%] | Env-spec CD8 (%) IL2+ [1, 7] [%] | Env-spec IgG2a titer, Geo mean [2, 5] | Env-spec IgG2a titer, Geo mean [2, 6] | Env-spec IgG2a titer, Geo mean [2, 7] | Env-spec IgG1 titer, Geo mean [3, 5] | Env-spec IgG1 titer, Geo mean [3, 6] | Env-spec IgG1 titer, Geo mean [3, 7] | concentration causing useful production of TNF-α [4] [µM] |
| --- | --- | --- | --- | --- | --- | --- | --- | --- | --- | --- | --- | --- | --- | --- | --- | --- | --- | --- | --- |
| CCCSc1nc2c(N)nc3ccccc3c2n1CC(C)C [Example 11, 1-(2-methylpropyl)-2-(propylthio)-1H-imidazo[4,5-c]quinolin-4-amine] | 0.04 | 0.17 | 0.08 | 0.17 | 0.04 | 0.42 | 0.19 | 0.22 | 0.04 | 0.42 | 0.18 | 0.22 | 512 | 2922 | 6507 | 35177 | 33477 | 34199 | – |
| CCCN(C)c1nc2c(N)nc3ccccc3c2n1CC(C)(C)O [Example 19, 1-{4-amino-2-[methyl(propyl)amino]-1H-imidazo[4,5-c]quinolin-1-yl}-2-methylpropan-2-ol] | 0.07 | 0.14 | 0.21 | 0.14 | 0.04 | 0.40 | 0.35 | 0.37 | 0.29 | 0.76 | 0.07 | 0.10 | 1215 | 10104 | 18733 | 30536 | 29502 | 38255 | – |
| C=CCn1c(=O)n([C@@H]2O[C@H](CO)[C@@H](O)[C@H]2O)c2nc(N)[nH]c(=O)c21 [Loxoribine] | – | – | – | – | – | – | – | – | – | – | – | – | – | – | – | – | – | – | 300 |
| ODN-1826 [reference compound] | – | – | – | – | – | – | – | – | 0.32 | 0.47 | 0.15 | 0.12 | – | – | 201306 | – | – | 30188 | – |
